From US3933800A, “New 3-formylrifamycin SV derivatives” (Gruppo Lepetit S.p.A., priority 1971, dated 1976)

Assays:
[1] = system: RNA dependent DNA polymerase of murine sarcoma virus (endogenous) and DNA dependent DNA polymerase activity of purified enzymes; assay: inhibition of murine sarcoma virus DNA polymerase (3H-dTTP incorporation); assay type: biochemical; conditions: at a concentration of 2-100 μg/ml or less; 60 min
Method: The inhibiting activity of the invention compounds has been tested on RNA dependent DNA polymerase of murine sarcoma virus (endogenous) and DNA dependent DNA polymerase activity of purified enzymes. The inhibition was tested according to the methods described by C. Gurgo et al., Nature, New Biology, 229, 111, 1971.
The effect of different concentrations of drugs on polymerase activity was determined by following 3H-dTTP (tritiated thymine deoxyriboside triphosphate) incorporation into the insoluble fraction. A typical example of the experimental procedures is the following: Isolation of virus and purification of viral polymerase
Virus was isolated and purified from murine sarcoma virus (Moloney isolate) transformed rat cells (78Al cells) and murine sarcoma virus (Harvey isolate) transformed mouse cells (MEH cells) as previously described (Green et al., Proc. Nat. Acad. Sci. USA 67. 385-393, 1970, Rokutanda et al., Nature, 227, 1026-1028, 1970). The virion polymerase was purified 20-40 fold by incubation of purified virus with 0.5% NP-40 (nonidet P-40) in 0.1 M NaCl, 0.01 M Tris buffer (pH 7.6), 0.001 M EDTA for 5 minutes at room temperature and zonal centrifugration in 15-30% sucrose gradients in 10 mM (millimoles) sodium phosphate buffer (pH 7.4), 2.5 mM MgCl2, 10 mM dithiothreitol, and 5% glycerol for 24 hours at 38.000 rpm in a Spinco SW41 rotor. The peak fractions of enzyme activity (13-17) of twenty-two fractions collected, were pooled, and stored at -70°C in 30% glycerol. DNA polymerase assay
Enzyme incubation was performed for 1 hour at 37°C in 100 μl of reaction mixture containing 40 mM Tris buffer (pH 8.0), 5mM dithiothreitol, 30 mM NaCl, 2.5 mM MgCl2, 0.1 mM daTP, dGTP, dCTP, and 10 μCi of ^3 H-dTTP (12-18 Ci/mmole) as described by Green et al., in Proc. Nat. Acad. Sci. US 67, 385-393, 1970. The reaction was terminated by the addition of 150 μ l of 1N perchloric acid. Calf thymus DNA (100 μg) were added as carrier; the radioactive DNA product was processed as described in the two papers mentioned above.
Endogenous RNA dependent DNA polymerase activity was measured after the addition of 0.01% PN-40 to purified virus at the time of assay. The DNA polymerase activity of purified viral polymerase was measured with 2 μg of poly d(A-T) as template and no NP-40. Test for inhibition by rifamycin derivatives
Rifamycin derivatives were dissolved in dimethylsulfoxide (DMSO) at a concentration of 5 mg/ml and stored at 4°C. Inhibition of the endogenous RNA dependent DNA polymerase activity was tested by adding 2 μ l of derivative appropriately diluted in DMSO or 2 μ l of DMSO (control) to the assay mixture prior to addition to disrupted virus which contained 15 to 30 μg of viral protein. Enzyme incubation was performed for 60 minutes at 37°C. Inhibition of purified enzyme was tested by pre-incubation of 2 μl of derivative of DMSO with 30 μl of enzyme (1 to 2 μg protein) for 10 minutes at 37°C; then 70 μ l of substrate mixture were added and the mixture further incubated and processed as described above.

[2] = system: polymerase from murine leukemia virus (reverse transcriptase); assay: inhibition of polymerase from murine leukemia virus; assay type: biochemical; conditions: endogenous 70S RNA template
Method: The inhibiting effect of reverse transcriptase has been confirmed also by test on polymerase from murine leukemia virus. Murine leukemia virus RNA polymerase was prepared from TRITON X 100 disrupted virions as described by Gallo et al., Nature, New Biology, 232, 141 (1971). Virus of both Rauscher and Moloney types were previously purified by banding in the 1.16 g/ml region of a sucrose density gradient after initial low speed centrifugation to remove cellular debris and cushioning on 60% sucrose through 20% sucrose. Final concentration of virus preparation was at 10^11 particles/ml. As template endogenous 70S RNA was used.

leukemic polymerase = assay: inhibition of DNA polymerase of human leukemic blood lymphoblasts; assay type: biochemical; conditions: synthetic RNA template (poly rA.rU)
Description: Similar results were found by using tumor cell polymerases of human origin. In this case the inhibiting activity was studied also on normal cells polymerases to characterize a selective effect. Representative rifamycin derivatives of formula I have been evaluated for their effects on […] purified DNA polymerase isolated from (I) human normal (PHA stimulated) blood lymphocytes (2) a lymphoblast cell line (derived from a normal donor) and (3) human leukemic blood lymphoblast. Synthetic and/or native templates were used.
Leukemic lymphoblasts were isolated from the peripheral blood of patients with acute lymphocytic leukemia (ALL) by leukophoresis. The cells were washed and erythrocytes removed by hypotonic lysis. Normal lymphocytes were obtained from the peripheral blood from healthy donors after removal of granulocytes by nylon column chromatography. They were stimulated with phytohemagglutinin (PHA) for 72 hours as described before (Gallo et al., Nature, 228, 927, 1970; Gallo et al. Science, 165, 400, 1968) in order to maximize DNA polymerase activity.
Cellular DNA polymerase were extracted and purified from normal blood (PHA stimulated) lymphocytes, and leukemic blood lymphocytes and 1788 lymphoid cells by homogenization in hypotonic buffer followed by Triton X 100 and/or high salt extraction of the extraylsosomal pellet. After differential centrifugation cellular extracts were further purified by DEAE cellulose, phosphocellulose, and Sephadex G 200 column chromatography. DNA polymerase Assays
DNA polymerase assays were carried out in a final volume of 100 μ l. The assay mixture contained Tris-HCl buffer, pH 8.3, 50 mM; MgAc, 6.0 mM; dithiothretiol, 8.0 mM; NaCl, 60 mM. […]
In these cases reactions were initiated by adding enzyme to the complete reaction mixture which included the inhibitor. […] The products were collected on Millipore filter, washed extensively with 5% TCA and 1 ml. of DMSO-ethanol-0.1 M NaCl mixture (0.5:70;29.5), dried and counted in 2 ml. of BBS3 (Beckman) and 10 ml. of liquifluor (New England Nuclear) in a Packard liquid scintillation counter.

bacteria = conditions: cited from earlier work
[3] = system: bacteria which had become resistant to the other rifamycins; conditions: namely rifampicin; cited from earlier work

Compound	incorporation of 3H-dTTP relative to control tests [1]	concentration giving inhibition of about 50 percent [2]	susceptibility compared with synthetic DNA template (leukemic polymerase)	antibacterial activity (bacteria)	effect against resistant bacteria [3]
CCCCON=Cc1c2c(O)c3c(O)c(C)c4c(c3c1O)C(=O)C(C)(OC=CC(OC)C(C)C(OC(C)=O)C(C)C(O)C(C)C(O)C(C)C=CC=C(C)C(=O)N2)O4 (stereo not drawn) [Example 4]	less than 10%				
CCCCCON=Cc1c2c(O)c3c(O)c(C)c4c(c3c1O)C(=O)C(C)(OC=CC(OC)C(C)C(OC(C)=O)C(C)C(O)C(C)C(O)C(C)C=CC=C(C)C(=O)N2)O4 (stereo not drawn) [Example 5]	less than 10%	10 to 25 µg/mL	even more susceptible		
CCCCCCCCON=Cc1c2c(O)c3c(O)c(C)c4c(c3c1O)C(=O)C(C)(OC=CC(OC)C(C)C(OC(C)=O)C(C)C(O)C(C)C(O)C(C)C=CC=C(C)C(=O)N2)O4 (stereo not drawn) [Example 6]	less than 10%	10 to 25 µg/mL	even more susceptible		
COC1C=COC2(C)Oc3c(C)c(O)c4c(O)c(c(C=NOCCc5ccccc5)c(O)c4c3C2=O)NC(=O)C(C)=CC=CC(C)C(O)C(C)C(O)C(C)C(OC(C)=O)C1C (stereo not drawn) [Example 13]	less than 10%				
COC1C=COC2(C)Oc3c(C)c(O)c4c(O)c(c(C=NOCCCc5ccccc5)c(O)c4c3C2=O)NC(=O)C(C)=CC=CC(C)C(O)C(C)C(O)C(C)C(OC(C)=O)C1C (stereo not drawn) [Example 14]	less than 10%	10 to 25 µg/mL	even more susceptible		
COC1C=COC2(C)Oc3c(C)c(O)c4c(O)c(c(C=NOC(c5ccccc5)c5ccccc5)c(O)c4c3C2=O)NC(=O)C(C)=CC=CC(C)C(O)C(C)C(O)C(C)C(OC(C)=O)C1C (stereo not drawn) [Example 16]	less than 10%				
CON=Cc1c2c(O)c3c(O)c(C)c4c(c3c1O)C(=O)C(C)(OC=CC(OC)C(C)C(OC(C)=O)C(C)C(O)C(C)C(O)C(C)C=CC=C(C)C(=O)N2)O4 (stereo not drawn) [O-methyl]				good antibacterial activity	practically no effect
COC1C=COC2(C)Oc3c(C)c(O)c4c(O)c(c(C=NOCCN5CCOCC5)c(O)c4c3C2=O)NC(=O)C(C)=CC=CC(C)C(O)C(C)C(O)C(C)C(OC(C)=O)C1C (stereo not drawn) [O-morpholinoethyl]				good antibacterial activity	practically no effect
COC1C=COC2(C)Oc3c(C)c(O)c4c(O)c(c(C=NO)c(O)c4c3C2=O)NC(=O)C(C)=CC=CC(C)C(O)C(C)C(O)C(C)C(OC(C)=O)C1C (stereo not drawn) [oxime of 3-formylrifamycin SV]				good antibacterial activity	practically no effect
